Laboratory results as given in ChEMBL document CHEMBL2346598, “Synthesis and pharmacological characterization of 2-(acylamino)thiophene derivatives as metabolically stable, orally effective, positive allosteric modulators of the GABAB receptor” (J Med Chem, 2013).
Active and inactive are the calls of the source. The calls are words filed in the database; no cut-off is given here.

Legend:
[1] = organism: Rattus norvegicus; test: Positive allosteric modulation of GABAB receptor in rat cortical membranes assessed as potentiation of GABA-induced [35S]GTPgammaS binding at 2.5 uM after 30 mins by liquid scintillation counting analysis relative to GABA; assay type: functional, cell membranes; details: Membrane
[2] = test system: Mus musculus; test: Hypnotic effect in DBA mouse assessed as potentiation of baclofen-induced loss of righting reflex at 10 mg/kg, ip incubated for 30 mins prior to baclofen-challenge; assay type: functional, organism-based; design: dose 10 mg/kg
[3] = test system: Plasma; test: Metabolic stability in mouse plasma at 5 uM after 30 mins by HPLC-MS analysis; assay type: ADME, cell-free; details: 0.5 h
[4] = test system: Mus musculus; test: Hypnotic effect in DBA mouse assessed as increase in baclofen-induced duration of loss of righting reflex at 300 mg/kg, ig incubated for 30 mins prior to baclofen-challenge relative to vehicle-treated control; assay type: functional, organism-based; design: dose 300 mg/kg
[5] = test system: Mus musculus; test: Hypnotic effect in DBA mouse assessed as reduction in pentobarbital-induced onset of loss of righting reflex at 100 mg/kg, ip incubated for 30 mins prior to pentobarbital-challenge (reference value: 60.0 +/- 0.0 min); assay type: functional; details: route intraperitoneal
[6] = test system: Mus musculus; test: Hypnotic effect in DBA mouse assessed as potentiation of baclofen-induced loss of righting reflex at 1 mg/kg, ip incubated for 30 mins prior to baclofen-challenge; assay type: functional, organism-based; design: dose 1 mg/kg
[7] = Drug metabolism in mouse liver microsomes at 5 uM after 60 mins by LC/MS/MS analysis; assay type: ADME, Microsome; details: read-out: Drug metabolism
[8] = Elimination rate constant in mouse liver microsomes at 5 uM after 60 mins by LC/MS/MS analysis; assay type: ADME, Microsome
[9] = test system: Mus musculus; test: Hypnotic effect in DBA mouse assessed as potentiation of pentobarbital-induced loss of righting reflex at 300 mg/kg, ip incubated for 30 mins prior to pentobarbital-challenge; assay type: functional, organism-based; design: dose 300 mg/kg
[10] = test system: Mus musculus; test: Hypnotic effect in ip dosed DBA mouse assessed as increase in baclofen-induced duration of loss of righting reflex incubated for 30 mins prior to baclofen-challenge; assay type: functional, organism-based
[11] = test system: Mus musculus; test: Hypnotic effect in DBA mouse assessed as reduction in pentobarbital-induced onset of loss of righting reflex at 300 mg/kg, ip incubated for 30 mins prior to pentobarbital-challenge (reference value: 60.0 +/- 0.0 min); assay type: functional; details: route intraperitoneal
[12] = Intrinsic clearance in mouse liver microsomes assessed per mg protein at 5 uM after 60 mins by LC/MS/MS analysis; assay type: ADME, Microsome; details: read-out: CLH
[13] = test system: Mus musculus; test: Hypnotic effect in DBA mouse assessed as reduction in baclofen-induced onset of loss of righting reflex at 300 mg/kg, ig incubated for 30 mins prior to baclofen-challenge relative to vehicle-treated control; assay type: functional, organism-based; design: dose 300 mg/kg
[14] = test system: Mus musculus; test: Hypnotic effect in DBA mouse assessed as increase in baclofen-induced duration of loss of righting reflex over 10 mg/kg, ip incubated for 30 mins prior to baclofen-challenge relative to vehicle-treated control; assay type: functional, organism-based; design: dose 10 mg/kg
[15] = organism: Rattus norvegicus; test: Positive allosteric modulation of GABAB receptor in rat cortical membranes assessed as potentiation of GABA-induced [35S]GTPgammaS binding at 25 uM after 30 mins by liquid scintillation counting analysis relative to GABA; assay type: functional, cell membranes; details: Membrane
[16] = test system: Mus musculus; test: Hypnotic effect in DBA mouse assessed as reduction in baclofen-induced onset of loss of righting reflex over 10 mg/kg, ip incubated for 30 mins prior to baclofen-challenge relative to vehicle-treated control; assay type: functional, organism-based; design: dose 10 mg/kg
[17] = test system: Mus musculus; test: Hypnotic effect in DBA mouse assessed as potentiation of baclofen-induced loss of righting reflex at 30 mg/kg, ip incubated for 30 mins prior to baclofen-challenge; assay type: functional, organism-based; design: dose 30 mg/kg
[18] = test system: Mus musculus; test: Hypnotic effect in DBA mouse assessed as potentiation of pentobarbital-induced loss of righting reflex at 30 mg/kg, ip incubated for 30 mins prior to pentobarbital-challenge; assay type: functional, organism-based; design: dose 30 mg/kg
[19] = test system: Mus musculus; test: Hypnotic effect in DBA mouse assessed as potentiation of pentobarbital-induced loss of righting reflex at 100 mg/kg, ip incubated for 30 mins prior to pentobarbital-challenge; assay type: functional, organism-based; design: dose 100 mg/kg
[20] = test system: NIH3T3; test: Cytotoxicity against mouse NIH/3T3 cells after 24 hrs by neutral red staining-based UV/visible spectrophotometric analysis; assay type: cell-based; details: NIH3T3, 24 h
[21] = test system: Mus musculus; test: Hypnotic effect in ip dosed DBA mouse assessed as reduction in baclofen-induced onset of loss of righting reflex incubated 30 mins prior to baclofen-challenge; assay type: functional, organism-based
[22] = test system: Mus musculus; test: Hypnotic effect in DBA mouse assessed as potentiation of baclofen-induced loss of righting reflex at 300 mg/kg, ig incubated for 30 mins prior to baclofen-challenge; assay type: functional, organism-based; design: dose 300 mg/kg
[23] = (§1) Positive allosteric modulation of GABAB receptor in rat cortical membranes assessed as potentiation of GABA-induced [35S]GTPgammaS binding after 30 mins by liquid scintillation counting analysis; assay type: functional, cell membranes, Membrane
[24] = test system: Mus musculus; test: Hypnotic effect in DBA mouse assessed as increase in pentobarbital-induced duration of loss of righting reflex at 100 mg/kg, ip incubated for 30 mins prior to pentobarbital-challenge; assay type: functional; details: route intraperitoneal
[25] = test system: Mus musculus; test: Hypnotic effect in DBA mouse assessed as potentiation of baclofen-induced loss of righting reflex at 100 mg/kg, ip incubated for 30 mins prior to baclofen-challenge; assay type: functional, organism-based; design: dose 100 mg/kg
[26] = test system: Mus musculus; test: Hypnotic effect in DBA mouse assessed as potentiation of baclofen-induced loss of righting reflex at 3 mg/kg, ip incubated for 30 mins prior to baclofen-challenge; assay type: functional, organism-based; design: dose 3 mg/kg
[27] = test system: Mus musculus; test: Hypnotic effect in DBA mouse assessed as increase in pentobarbital-induced duration of loss of righting reflex at 30 mg/kg, ip incubated for 30 mins prior to pentobarbital-challenge; assay type: functional; details: route intraperitoneal
[28] = test system: Mus musculus; test: Hypnotic effect in DBA mouse assessed as reduction in pentobarbital-induced onset of loss of righting reflex at 30 mg/kg, ip incubated for 30 mins prior to pentobarbital-challenge (reference value: 60.0 +/- 0.0 min); assay type: functional; details: route intraperitoneal
[29] = test system: Mus musculus; test: Hypnotic effect in DBA mouse assessed as increase in pentobarbital-induced duration of loss of righting reflex at 300 mg/kg, ip incubated for 30 mins prior to pentobarbital-challenge; assay type: functional; details: route intraperitoneal
[30] = organism: Rattus norvegicus; test: Positive allosteric modulation of GABAB receptor in rat cortical membranes assessed as stimulation of [35S]GTPgammaS binding up to 100 uM after 30 mins by liquid scintillation counting analysis; assay type: functional, cell membranes; details: Membrane
[31] = organism: Rattus norvegicus; test: Positive allosteric modulation of GABAB receptor in rat cortical membranes assessed as potentiation of GABA-induced [35S]GTPgammaS binding at 30 uM after 30 mins by liquid scintillation counting analysis relative to GABA; assay type: functional, cell membranes; details: Membrane
[32] = test system: Mus musculus; test: Hypnotic effect in DBA mouse assessed as potentiation of baclofen-induced loss of righting reflex at 300 mg/kg, ip incubated for 30 mins prior to baclofen-challenge; assay type: functional, organism-based; design: dose 300 mg/kg
[33] = test system: Mus musculus; test: Hypnotic effect in ip dosed DBA mouse assessed as potentiation of pentobarbital-induced loss of righting reflex incubated for 30 mins prior to pentobarbital-challenge; assay type: functional, organism-based
[34] = test system: Mus musculus; test: Hypnotic effect in DBA mouse assessed as increase in baclofen-induced duration of loss of righting reflex over 3 mg/kg, ip incubated for 30 mins prior to baclofen-challenge relative to vehicle-treated control; assay type: functional, organism-based; design: dose 3 mg/kg
[35] = Ratio of compound IC50 to COR627 IC50 for mouse NIH/3T3 cells; assay type: ADME, cell-based, NIH3T3; details: read-out: Ratio IC50
[36] = test system: Mus musculus; test: Hypnotic effect in DBA mouse assessed as reduction in baclofen-induced onset of loss of righting reflex over 1 mg/kg, ip incubated for 30 mins prior to baclofen-challenge relative to vehicle-treated control; assay type: functional, organism-based; design: dose 1 mg/kg
[37] = Ratio of compound IC50 to COR628 IC50 for mouse NIH/3T3 cells; assay type: ADME, cell-based, NIH3T3; details: read-out: Ratio IC50
[38] = test system: Mus musculus; test: Hypnotic effect in DBA mouse assessed as increase in baclofen-induced duration of loss of righting reflex over 30 mg/kg, ip incubated for 30 mins prior to baclofen-challenge relative to vehicle-treated control; assay type: functional, organism-based; design: dose 30 mg/kg
[39] = organism: Rattus norvegicus; test: as §1; assay type: functional, cell membranes; details: Membrane
[40] = test system: Mus musculus; test: Hypnotic effect in DBA mouse assessed as reduction in baclofen-induced onset of loss of righting reflex at 100 to 300 mg/kg, ip incubated for 30 mins prior to baclofen-challenge relative to vehicle-treated control; assay type: functional, organism-based
[41] = test system: Mus musculus; test: Hypnotic effect in DBA mouse assessed as increase in baclofen-induced duration of loss of righting reflex at 100 to 300 mg/kg, ip incubated for 30 mins prior to baclofen-challenge relative to vehicle-treated control; assay type: functional, organism-based

Activity [1]	Stability [3]	metabolised at 1 h, 5 µM [7]	k el at 1 h, 5 µM [8]	microsomal CLint at 5 µM [12]	Activity [15]	Activity [30]	Compound	Activity [2]	Activity [4]	Time [5]	Activity [6]	Activity [10]	Activity [13]	Activity [17]	IC50 [20]	Activity [21]	Activity [22]	Activity [25]	Activity [26]	Activity [32]	also measured
9.2%	Unstable	28%	0.000127 s⁻¹	7.9 µL/min/mg	18.3%	inactive	CCc1c(C)sc(NC(=O)c2ccc(Cl)cc2)c1C(=O)OC	Active	Active	51.8 min	Active	Dose-dependent effect	Active	Active	59 µM	Dose-dependent effect	Active	Active	Active	Active	Activity [9]: Active; Time [11]: 45.8 min; Activity [14]: Active; Activity [16]: Active; Activity [18]: inactive; Activity [19]: inactive; EC50 [23]: 1.11 µM; Time [24]: 4.8 min; Time [27]: 0 min; Time [28]: 60 min; Time [29]: 7.3 min; Emax [31]: 51%
17.8%	Unstable	40%	0.000192 s⁻¹	12 µL/min/mg	27.3%	inactive	CCc1c(C)sc(NC(=O)c2ccc(C(F)(F)F)cc2)c1C(=O)OC	Active	Active	45.2 min	Active	Dose-dependent effect	Active	Active	54 µM	Dose-dependent effect	Active	Active	Active	Active	Activity [33]: Dose-dependent effect; Activity [9]: Active; Time [11]: 31.3 min; Activity [16]: Active; Activity [18]: inactive; Activity [19]: inactive; EC50 [23]: 0.28 µM; Time [24]: 7 min; Activity [34]: Active; Time [27]: 2.3 min; Time [28]: 54 min; Time [29]: 23.3 min; Emax [31]: 60%
19%	Unstable	32%	0.000144 s⁻¹	8.98 µL/min/mg	23.2%	inactive	CCc1c(C)sc(NC(=O)c2ccc(C(C)(C)C)cc2)c1C(=O)OC	Active	Active	–	Active	Dose-dependent effect	Active	Active	140 µM	Dose-dependent effect	Active	Active	Active	Active	selectivity ratio [35]: 4; Activity [36]: Active; selectivity ratio [37]: 4; Activity [38]: Active; Activity [39]: inactive
3.7%	Unstable	28%	0.000124 s⁻¹	7.73 µL/min/mg	18.2%	inactive	CCc1c(C)sc(NC(=O)c2ccc(C)cc2)c1C(=O)OC	Active	Active	43.8 min	inactive	Dose-dependent effect	Active	Active	95 µM	Dose-dependent effect	Active	Active	Active	Active	Activity [40]: Active; Activity [9]: Active; Time [11]: 26.7 min; Activity [41]: Active; Activity [18]: inactive; Activity [19]: inactive; Activity [39]: inactive; Time [24]: 11.2 min; Time [27]: 4.7 min; Time [28]: 53.3 min; Time [29]: 14 min
